Measurements reported in paper PMC9898036, “VIP152 is a selective CDK9 inhibitor with pre-clinical in vitro and in vivo efficacy in chronic lymphocytic leukemia” (Leukemia, 2022).

What was measured:
Assay type in all cases: binding
ACVR1 = ACVR1 (Homo sapiens, UniProt Q04771); assay: KINOMEscan: ACVR1; conditions: 1000 nM, read-out: Percent Control
CDK8 = CDK8 (Homo sapiens, UniProt P49336); assay: KINOMEscan: CDK8; conditions: 1000 nM, read-out: Percent Control
CDK2 = CDK2 (Homo sapiens, UniProt P24941); assay: KINOMEscan: CDK2; conditions: 1000 nM, read-out: Percent Control
GSK3B = GSK3B (Homo sapiens, UniProt P49841); assay: KINOMEscan: GSK3B; conditions: 1000 nM, read-out: Percent Control
AKT2 = AKT2 (Homo sapiens, UniProt P31751); assay: KINOMEscan: AKT2; conditions: 1000 nM, read-out: Percent Control
SGK = SGK (Homo sapiens, UniProt O00141); assay: KINOMEscan: SGK; conditions: 100 nM, read-out: Percent Control
[1] = target: Serotonin (5-Hydroxytryptamine) 5-HT1A) (Homo sapiens, UniProt P08908); assay: Eurofins Diversity Panel; conditions: hum, Conc. 10 μM
CLK4 = CLK4 (Homo sapiens, UniProt Q9HAZ1); assay: KINOMEscan: CLK4; conditions: 1000 nM, read-out: Percent Control
EIF2AK1 = EIF2AK1 (Homo sapiens, UniProt Q9BQI3); assay: KINOMEscan: EIF2AK1; conditions: 1000 nM, read-out: Percent Control
SNARK = SNARK (Homo sapiens, UniProt Q9H093); assay: KINOMEscan: SNARK; conditions: 100 nM, read-out: Percent Control
CAMK2G = CAMK2G (Homo sapiens, UniProt Q13555); assay: KINOMEscan: CAMK2G; conditions: 1000 nM, read-out: Percent Control
EGFR(T790M) = EGFR(T790M) (Homo sapiens, UniProt P00533, T790M); assay: KINOMEscan: EGFR(T790M); conditions: 1000 nM, read-out: Percent Control
MAP4K3 = MAP4K3 (Homo sapiens, UniProt Q8IVH8); assay: KINOMEscan: MAP4K3; conditions: 1000 nM, read-out: Percent Control
DLK = DLK (Homo sapiens, UniProt Q12852); assay: KINOMEscan: DLK; conditions: 1000 nM, read-out: Percent Control
Adrenergic α2A = target: T1, Adrenergic α2A (Homo sapiens, UniProt P08913); assay: Eurofins Diversity Panel; conditions: hum
T1 construct: purchased Eurofins
T1 sequence (P08913 1-465): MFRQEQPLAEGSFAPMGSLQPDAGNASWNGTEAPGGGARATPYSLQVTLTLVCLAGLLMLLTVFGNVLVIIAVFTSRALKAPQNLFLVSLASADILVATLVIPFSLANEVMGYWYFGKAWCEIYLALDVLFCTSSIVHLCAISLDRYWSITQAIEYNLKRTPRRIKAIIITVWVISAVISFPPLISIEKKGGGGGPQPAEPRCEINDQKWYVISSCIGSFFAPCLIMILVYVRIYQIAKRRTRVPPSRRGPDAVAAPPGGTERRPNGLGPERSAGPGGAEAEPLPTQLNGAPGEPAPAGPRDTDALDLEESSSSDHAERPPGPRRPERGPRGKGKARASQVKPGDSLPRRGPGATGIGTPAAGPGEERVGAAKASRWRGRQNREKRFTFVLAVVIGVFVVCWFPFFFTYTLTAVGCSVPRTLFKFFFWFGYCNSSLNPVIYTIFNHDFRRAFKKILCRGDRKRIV

EPHB6 = EPHB6 (Homo sapiens, UniProt O15197); assay: KINOMEscan: EPHB6; conditions: 1000 nM, read-out: Percent Control
Tachykinin NK1 = Tachykinin NK1 (Homo sapiens, UniProt P25103); assay: Eurofins Diversity Panel; conditions: hum, Conc. 10 μM
MEK6 = MEK6 (Homo sapiens, UniProt P52564); assay: KINOMEscan: MEK6; conditions: 1000 nM, read-out: Percent Control
ERK4 = ERK4 (Homo sapiens, UniProt P31152); assay: KINOMEscan: ERK4; conditions: 1000 nM, read-out: Percent Control
SGK2 = SGK2 (Homo sapiens, UniProt Q9HBY8); assay: KINOMEscan: SGK2; conditions: 100 nM, read-out: Percent Control
[2] = target: RPS6KA4(Kin.Dom.2-C-terminal) (Homo sapiens, UniProt O75676); assay: KINOMEscan: RPS6KA4(Kin.Dom.2-C-terminal); conditions: 100 nM, read-out: Percent Control
ERK3 = ERK3 (Homo sapiens, UniProt Q16659); assay: KINOMEscan: ERK3; conditions: 1000 nM, read-out: Percent Control
[3] = target: RSK1(Kin.Dom.1-N-terminal) (Homo sapiens, UniProt Q15418); assay: KINOMEscan: RSK1(Kin.Dom.1-N-terminal); conditions: 100 nM, read-out: Percent Control
TRPM6 = TRPM6 (Homo sapiens, UniProt Q9BX84); assay: KINOMEscan: TRPM6; conditions: 100 nM, read-out: Percent Control
Dopamine D1 = Dopamine D1 (Homo sapiens, UniProt P21728); assay: Eurofins Diversity Panel; conditions: hum, Conc. 10 μM
TESK1 = TESK1 (Homo sapiens, UniProt Q15569); assay: KINOMEscan: TESK1; conditions: 100 nM, read-out: Percent Control

SNARK, sequence (Q9H093 whole entry): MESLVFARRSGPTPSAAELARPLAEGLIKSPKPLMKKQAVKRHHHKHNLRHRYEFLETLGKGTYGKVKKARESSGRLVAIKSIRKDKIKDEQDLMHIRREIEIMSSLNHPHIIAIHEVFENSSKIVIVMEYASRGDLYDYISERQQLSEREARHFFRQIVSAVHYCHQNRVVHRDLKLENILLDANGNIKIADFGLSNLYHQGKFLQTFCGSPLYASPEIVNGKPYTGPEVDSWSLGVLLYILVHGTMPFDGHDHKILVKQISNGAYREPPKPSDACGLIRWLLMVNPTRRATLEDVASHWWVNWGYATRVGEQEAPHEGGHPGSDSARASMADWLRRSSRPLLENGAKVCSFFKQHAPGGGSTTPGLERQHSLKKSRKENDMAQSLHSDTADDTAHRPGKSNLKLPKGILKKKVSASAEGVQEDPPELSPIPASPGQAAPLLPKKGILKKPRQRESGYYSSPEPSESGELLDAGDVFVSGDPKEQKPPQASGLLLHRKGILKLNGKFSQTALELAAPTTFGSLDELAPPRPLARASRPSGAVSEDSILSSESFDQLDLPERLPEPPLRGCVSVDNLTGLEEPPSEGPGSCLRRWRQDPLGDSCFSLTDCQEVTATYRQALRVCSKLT
CDK8, sequence (P49336 whole entry): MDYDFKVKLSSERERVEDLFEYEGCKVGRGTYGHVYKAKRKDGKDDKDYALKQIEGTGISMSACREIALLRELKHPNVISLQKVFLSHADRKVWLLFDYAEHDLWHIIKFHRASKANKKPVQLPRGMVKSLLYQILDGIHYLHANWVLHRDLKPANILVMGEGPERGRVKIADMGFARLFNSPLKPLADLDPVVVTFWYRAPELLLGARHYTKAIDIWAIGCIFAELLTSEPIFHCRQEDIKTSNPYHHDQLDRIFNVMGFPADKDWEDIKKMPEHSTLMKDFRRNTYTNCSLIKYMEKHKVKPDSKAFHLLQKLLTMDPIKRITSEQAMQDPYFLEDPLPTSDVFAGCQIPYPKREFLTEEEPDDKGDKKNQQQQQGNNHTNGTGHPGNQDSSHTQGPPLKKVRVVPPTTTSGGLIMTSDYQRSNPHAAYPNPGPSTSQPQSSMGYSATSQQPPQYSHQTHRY
RSK1(Kin.Dom.1-N-terminal), sequence (Q15418 1-391 limits assumed): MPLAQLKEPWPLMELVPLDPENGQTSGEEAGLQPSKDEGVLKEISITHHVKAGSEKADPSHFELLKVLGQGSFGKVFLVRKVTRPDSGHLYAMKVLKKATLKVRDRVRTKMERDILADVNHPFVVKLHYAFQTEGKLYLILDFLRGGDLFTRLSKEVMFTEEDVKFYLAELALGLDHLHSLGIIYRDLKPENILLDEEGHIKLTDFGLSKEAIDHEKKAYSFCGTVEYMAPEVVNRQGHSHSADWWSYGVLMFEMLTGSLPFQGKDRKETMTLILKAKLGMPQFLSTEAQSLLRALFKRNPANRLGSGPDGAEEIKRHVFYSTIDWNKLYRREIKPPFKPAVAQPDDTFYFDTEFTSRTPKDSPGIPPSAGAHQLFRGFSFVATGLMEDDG
ACVR1, sequence (Q04771 21-509): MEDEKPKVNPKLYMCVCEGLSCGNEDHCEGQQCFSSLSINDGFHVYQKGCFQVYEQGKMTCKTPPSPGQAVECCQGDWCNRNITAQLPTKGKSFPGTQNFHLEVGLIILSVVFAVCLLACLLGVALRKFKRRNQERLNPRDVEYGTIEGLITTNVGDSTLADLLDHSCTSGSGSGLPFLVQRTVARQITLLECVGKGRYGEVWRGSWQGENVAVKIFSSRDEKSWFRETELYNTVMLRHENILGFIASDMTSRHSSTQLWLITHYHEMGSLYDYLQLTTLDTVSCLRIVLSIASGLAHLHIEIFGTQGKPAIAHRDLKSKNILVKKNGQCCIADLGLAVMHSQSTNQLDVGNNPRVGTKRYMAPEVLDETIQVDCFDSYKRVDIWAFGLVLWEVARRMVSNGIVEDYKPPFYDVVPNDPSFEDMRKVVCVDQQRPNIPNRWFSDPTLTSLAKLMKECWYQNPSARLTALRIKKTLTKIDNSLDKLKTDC
MEK6, sequence (P52564 whole entry): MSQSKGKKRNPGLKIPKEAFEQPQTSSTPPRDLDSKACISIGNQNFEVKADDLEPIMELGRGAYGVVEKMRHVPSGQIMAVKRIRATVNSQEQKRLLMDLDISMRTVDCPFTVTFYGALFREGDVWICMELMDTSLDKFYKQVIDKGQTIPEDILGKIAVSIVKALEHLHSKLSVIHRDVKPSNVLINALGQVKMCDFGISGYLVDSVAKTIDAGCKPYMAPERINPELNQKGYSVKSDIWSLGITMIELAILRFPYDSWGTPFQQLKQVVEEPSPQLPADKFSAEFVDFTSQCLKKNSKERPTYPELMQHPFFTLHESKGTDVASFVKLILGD
CAMK2G, sequence (Q13555 whole entry): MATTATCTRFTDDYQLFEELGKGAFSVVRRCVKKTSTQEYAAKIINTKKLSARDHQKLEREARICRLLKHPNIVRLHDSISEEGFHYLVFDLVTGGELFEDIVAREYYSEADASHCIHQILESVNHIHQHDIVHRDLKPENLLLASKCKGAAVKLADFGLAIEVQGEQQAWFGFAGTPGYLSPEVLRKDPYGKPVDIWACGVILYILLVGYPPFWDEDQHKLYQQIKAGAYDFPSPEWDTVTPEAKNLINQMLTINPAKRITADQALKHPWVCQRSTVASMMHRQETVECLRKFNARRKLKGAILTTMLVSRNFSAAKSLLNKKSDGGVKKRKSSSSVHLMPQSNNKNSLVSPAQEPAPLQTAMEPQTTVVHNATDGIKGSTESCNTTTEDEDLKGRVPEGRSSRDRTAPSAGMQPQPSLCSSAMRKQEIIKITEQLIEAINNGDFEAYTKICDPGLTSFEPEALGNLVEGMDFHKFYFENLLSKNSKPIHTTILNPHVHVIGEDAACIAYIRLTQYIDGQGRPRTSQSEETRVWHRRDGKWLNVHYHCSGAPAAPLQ
RPS6KA4(Kin.Dom.2-C-terminal), sequence (O75676 372-772 limits assumed): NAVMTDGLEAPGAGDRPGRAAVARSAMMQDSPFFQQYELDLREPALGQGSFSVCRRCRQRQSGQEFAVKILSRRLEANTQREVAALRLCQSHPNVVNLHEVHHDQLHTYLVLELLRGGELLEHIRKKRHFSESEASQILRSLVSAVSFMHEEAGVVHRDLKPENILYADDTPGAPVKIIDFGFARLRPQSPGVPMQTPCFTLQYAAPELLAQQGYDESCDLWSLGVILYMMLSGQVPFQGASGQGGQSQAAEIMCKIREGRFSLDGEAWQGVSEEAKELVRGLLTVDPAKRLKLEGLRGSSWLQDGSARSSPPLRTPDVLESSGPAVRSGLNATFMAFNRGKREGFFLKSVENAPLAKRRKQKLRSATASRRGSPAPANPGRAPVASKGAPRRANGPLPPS
AKT2, sequence (P31751 whole entry): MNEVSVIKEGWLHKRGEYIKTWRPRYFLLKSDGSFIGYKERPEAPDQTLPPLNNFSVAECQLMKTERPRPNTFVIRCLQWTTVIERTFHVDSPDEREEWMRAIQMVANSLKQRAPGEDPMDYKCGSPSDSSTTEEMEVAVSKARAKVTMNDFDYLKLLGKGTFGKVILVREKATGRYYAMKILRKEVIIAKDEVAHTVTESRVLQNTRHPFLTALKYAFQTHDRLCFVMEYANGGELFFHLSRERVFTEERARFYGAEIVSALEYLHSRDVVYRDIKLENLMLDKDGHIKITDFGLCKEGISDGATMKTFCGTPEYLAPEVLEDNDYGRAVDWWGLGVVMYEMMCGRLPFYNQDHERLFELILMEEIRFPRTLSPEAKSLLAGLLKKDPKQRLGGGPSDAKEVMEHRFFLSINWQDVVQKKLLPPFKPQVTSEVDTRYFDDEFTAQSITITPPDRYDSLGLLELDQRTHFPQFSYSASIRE
EIF2AK1, sequence (Q9BQI3 whole entry): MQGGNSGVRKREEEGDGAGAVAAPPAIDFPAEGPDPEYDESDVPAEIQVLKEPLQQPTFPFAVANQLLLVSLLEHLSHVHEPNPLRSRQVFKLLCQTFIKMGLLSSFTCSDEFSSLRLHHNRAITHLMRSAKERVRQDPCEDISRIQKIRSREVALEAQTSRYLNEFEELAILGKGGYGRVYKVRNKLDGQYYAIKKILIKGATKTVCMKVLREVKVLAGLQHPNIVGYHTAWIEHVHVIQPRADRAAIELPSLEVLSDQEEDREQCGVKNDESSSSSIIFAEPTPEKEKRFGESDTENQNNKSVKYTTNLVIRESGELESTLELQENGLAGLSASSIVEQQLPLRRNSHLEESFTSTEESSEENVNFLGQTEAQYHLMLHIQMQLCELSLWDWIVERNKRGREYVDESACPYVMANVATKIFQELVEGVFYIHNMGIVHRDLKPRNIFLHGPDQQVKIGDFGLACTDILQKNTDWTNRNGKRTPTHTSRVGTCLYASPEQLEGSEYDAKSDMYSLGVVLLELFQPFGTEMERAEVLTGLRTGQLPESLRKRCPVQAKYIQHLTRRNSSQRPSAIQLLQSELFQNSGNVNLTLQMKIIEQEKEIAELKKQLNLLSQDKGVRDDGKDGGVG
SGK, sequence (O00141 whole entry): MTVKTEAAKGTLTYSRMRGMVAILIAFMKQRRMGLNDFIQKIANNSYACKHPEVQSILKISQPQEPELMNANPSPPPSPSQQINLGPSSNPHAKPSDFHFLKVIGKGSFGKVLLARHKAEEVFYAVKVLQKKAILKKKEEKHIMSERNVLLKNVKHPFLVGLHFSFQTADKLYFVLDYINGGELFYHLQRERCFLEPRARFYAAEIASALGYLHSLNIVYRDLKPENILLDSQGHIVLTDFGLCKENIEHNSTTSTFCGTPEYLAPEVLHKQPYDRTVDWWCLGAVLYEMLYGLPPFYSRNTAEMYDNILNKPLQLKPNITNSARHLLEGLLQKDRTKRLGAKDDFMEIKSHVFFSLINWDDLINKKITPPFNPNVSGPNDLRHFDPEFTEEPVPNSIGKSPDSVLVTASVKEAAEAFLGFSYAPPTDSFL

COc1cc(F)ccc1-c1cc(Nc2cc(CS(C)(=N)=O)ccn2)ncc1F (centres unmarked) [VIP152]
remaining binding at 1 µM (ACVR1): 64% | remaining binding at 1 µM (CDK8): 93% | remaining binding at 1 µM (CDK2): 51% | remaining binding at 1 µM (GSK3B): 11% | remaining binding at 1 µM (AKT2): 100% | remaining binding at 0.1 µM (SGK): 100% | inhibition at 10 µM [1]: 13% | remaining binding at 1 µM (CLK4): 88% | remaining binding at 1 µM (EIF2AK1): 100% | remaining binding at 0.1 µM (SNARK): 100% | remaining binding at 1 µM (CAMK2G): 78% | remaining binding at 1 µM (EGFR(T790M)): 94% | remaining binding at 1 µM (MAP4K3): 57% | remaining binding at 1 µM (DLK): 90% | IC50 (Adrenergic α2A): 64 nM | Ki (Adrenergic α2A): 32 nM | nH (Adrenergic α2A): 0.94 | inhibition at 10 µM (Adrenergic α2A; Conc. 10 μM): 100% | remaining binding at 1 µM (EPHB6): 13% | inhibition at 10 µM (Tachykinin NK1): 19% | remaining binding at 1 µM (MEK6): 94% | remaining binding at 1 µM (ERK4): 99% | remaining binding at 0.1 µM (SGK2): 100% | remaining binding at 0.1 µM [2]: 100% | remaining binding at 1 µM (ERK3): 84% | remaining binding at 0.1 µM [3]: 100% | remaining binding at 0.1 µM (TRPM6): 100% | inhibition at 10 µM (Dopamine D1): 14% | remaining binding at 0.1 µM (TESK1): 100%
